Assay results taken from US8785149B2, “In vitro cellular bioassay for neurotoxicity testing” (The Arizona Board of Regents on Behalf of the University of …, priority 2010, dated 2014).
Entries after “also recorded” stand apart in the source; their conditions may differ.

What was measured:
[1] = test system: fascin-deficient singed-mutant neurons; assay: Primary neuron culture neurotoxicity screen, fascin-deficient neurons; conditions: 3 days in vitro; for neurotoxic defects: 10 and 50 μM, phase-contrast morphology; for beads-on-a-string (BOS) defect (intra-neurite nodules): singed (sn) mutant larval CNS neurons; for BOS effect in sn-mutant, fascin-deficient neurons relative to wild-type: at each dose; for BOS density versus dose: wild-type and sn-mutant neurons, randomly selected neurons
Source text: Following this enzymatic treatment, the tissue is washed and then mechanically triturated in culture medium to dissociate it into single cells.

[2] = test system: wild-type (OreRC) neurons
[3] = test system: cultured neurons with mutations in the Drosophila fragile X mental retardation 1 gene (dfmr1); assay type: cell-based
Source text: In this case, the genetic control was designed (Michel et al. (2004). J. Neurosci., 23:5798-5809) to be identical in every possible way, except for the presence or absence of a normal dfmr1 gene.

Row | SMILES | neurotoxic defects [1] | beads-on-a-string (BOS) defect (intra-neurite nodules) [1] | other results
1 | COc1ccc(C[C@H]2NC[C@H](O)[C@H]2OC(C)=O)cc1 [anisomycin] | overt neurotoxic defects | – | –
2 | CC(C)c1c(C(=O)Nc2ccccc2)c(-c2ccccc2)c(-c2ccc(F)cc2)n1CC[C@@H](O)C[C@@H](O)CC(=O)O [atorvastatin] | – | beads-on-a-string (BOS) defect; also recorded: induced | neurite outgrowth [2]: inhibition of neurite outgrowth
3 | C[C@@H]1C[C@@H]([C@H](O)CC2CC(=O)NC(=O)C2)C(=O)[C@@H](C)C1 [cycloheximide] | overt neurotoxic defects | – | –
4 | CC[C@H](C)C(=O)O[C@H]1C[C@@H](C)C=C2C=C[C@H](C)[C@H](CC[C@@H]3C[C@@H](O)CC(=O)O3)[C@H]21 [lovastatin] | – | beads-on-a-string (BOS) defect; also recorded: induced | –
5 | C[C@@H]1O[C@@H](O[C@H]2C[C@@H](O)[C@]3(CO)[C@H]4[C@H](O)C[C@]5(C)[C@@H](C6=CC(=O)OC6)CC[C@]5(O)[C@@H]4CC[C@]3(O)C2)[C@H](O)[C@H](O)[C@H]1O [ouabain] | overt neurotoxic defects | – | –
6 | CC(=O)O[C@H]1C(=O)[C@@]2(C)[C@H]([C@H](OC(=O)c3ccccc3)[C@]3(O)C[C@H](OC(=O)[C@H](O)[C@@H](NC(=O)c4ccccc4)c4ccccc4)C(C)=C1C3(C)C)[C@]1(OC(C)=O)CO[C@@H]1C[C@@H]2O [paclitaxel] | overt neurotoxic defects | – | –
7 | CC[C@H](C)C(=O)O[C@H]1C[C@H](O)C=C2C=C[C@H](C)[C@H](CC[C@@H](O)C[C@@H](O)CC(=O)O)[C@H]21 [pravastatin] | – | beads-on-a-string (BOS) defect; also recorded: induced | BOS effect in sn-mutant, fascin-deficient neurons relative to wild-type [1]: enhanced the sensitivity; BOS density versus dose [1]: increased with dose; severity of BOS defect in dfmr1-mutant neurons versus control neurons [3]: less severe BOS defect
8 | CC(C)c1nc(N(C)S(C)(=O)=O)nc(-c2ccc(F)cc2)c1/C=C/[C@@H](O)C[C@@H](O)CC(=O)O [rosuvastatin] | – | beads-on-a-string (BOS) defect; also recorded: induced | BOS effect in sn-mutant, fascin-deficient neurons relative to wild-type [1]: enhanced the sensitivity; BOS density versus dose [1]: increased with dose
9 | C[CH2][Hg][S]c1ccccc1C(=O)[O-].[Na+] [thimerosal] | overt neurotoxic defects | – | –
